From article PMC5488423, “Prevention of dendritic and synaptic deficits and cognitive impairment with a neurotrophic compound” (Alzheimer's Research & Therapy, 2017)
Residues, ends and D or L forms follow the SMILES beside them.

Key:
[1] = set-up: method as in PMID 25046994; details: cited from earlier work
3 × Tg-AD mice = test: Side effects and safety during chronic dietary treatment; assay type: in vivo, mouse; details: 60 nmol P021/g feed in diet
Method: At approximately 3 months of age, the animals were divided into three groups: one group of 3 × Tg-AD-P021 (n = 32) treated with 60 nmol P021/g feed in the diet; a second group of 3 × Tg-AD-vh (n = 35) treated with the same diet but without P021; and a third group of WT (n = 41) treated with the same diet but without P021. P021 was formulated by Research Diets (New Brunswick, NJ, USA). Food consumption was recorded every 2 weeks and body weight every month. The average mouse food consumption was ~2.7 g feed/day.

[2] = set-up: method as in PMID 25046994; details: cited from earlier work; remark: listed apart in the source
[3] = set-up: method as in PMID 25046994; details: over 120 min; cited from earlier work
[4] = set-up: method as in PMID 25046994; details: over 30 min; cited from earlier work

## CC(=O)N[C@@H](CC(=O)O)C(=O)NCC(=O)NCC(=O)N[C@@H](CC(C)C)C(=O)NC12CC3CC(C1)CC(C(N)=O)(C3)C2 [Peptide P021] (HELM PEPTIDE1{[ac].D.G.G.L.[NC(=O)C12CC3CC(CC(N[*:1])(C3)C1)C2]}$$$$V2.0)
[1]
  blood–brain barrier permeability: blood–brain barrier permeable
3 × Tg-AD mice; preclinical study of almost 2 years
  side effects or safety issues: did not show any severe side effects or safety issues
3 × Tg-AD mice; treatment for around 18 months
  weight loss, tumors, or signs of pain: did not show any weight loss, tumors, or signs of pain
[2]
  plasma stability: > 3 h
[3]
  stability in intestinal fluid: ~ 100%
[4]
  stability in artificial gastric juice: > 95%
